Results on one molecule are retold here after patent US8623911B2, “Boron-containing small molecules as anti-protozoal agent” (Anacor Pharmaceuticals, Inc., priority 2010, dated 2014).

For data set [1], the system named is LAB 110 Eatro strain of T. b. brucei. The data set can be described thus: Acute Murine Model A [Murine Stage 1 HAT]. The format is in vivo. The protocol: Female Swiss Webster mice were inoculated with 250,000 parasites of the LAB 110 Eatro strain of T. b. brucei. 24 hrs post-infection, treatment was initiated by administration of a compound of the invention BID for 4 days with 20 mg/kg/dose (40 mg/kg/day) intraperitoneally (IP) or orally (PO), 5 mg/kg BID or 10 mg/kg BID orally (PO). 3 mice per group were treated with a particular compound of the invention. Mice were checked for parasitemia weekly by microscopic examination of smears prepared from tail vein blood. Animals remaining parasite free for more than 30 days beyond the end of the treatment period were considered cured. Control untreated animals typically succumbed to the infection within 4-5 days following i.p. inoculation with parasites. Mice were monitored for 30 days for survival. Pentamidine at 2 mg/kg IP was used as the positive control. After 10 days, 0% of the untreated mice were parasite free. After 10 days, 67% of mice treated PO with 10 mg/kg BID of N-(1-Hydroxy-3,4-dihydro-1H-benzo[c][1,2]oxaborinin-7-yl)-4-methoxy-benzamide (M19) were parasite free. After 30 days, 100% of mice treated PO with 10 mg/kg BID of 4-fluoro-N-(1-hydroxy-3,4-dihydro-1H-benzo[c][1,2]oxaborinin-7-yl)-2-trifluoromethyl-benzamide (M1) were parasite free.

The test system of a further data set is P-gp (human MDR1). Briefly: in vitro. Format: in vitro ADME, canine. Particulars: dog, MDCK-MDR1; 3 μM test compound; without GF120918; read-out: MDCK-MCR1 Papp. The protocol: (§1) MDCK-MDR1 cells (Madin-Darby canine kidney cells transfected with the human MDR1 gene) (Dr. Piet Borst, NKI-AVL, Amsterdam, The Netherlands) were seeded at 300,000 cells per well onto microporous, polycarbonate membranes in 12 well Costar Transwell® plates (Corning, Corning, N.Y.). The medium was removed and replaced with fresh cell culture medium approximately 24 hours after plating. Cells attained confluency and were ready for use in the transport assay after 72 hours of incubation.
(§2) A stock solution of each compound was prepared in DMSO at a concentration of 10 mg/mL. Stock solutions were further diluted in DMSO to a concentration of 1 mM for use in the assay. The final assay concentration of test compound in each incubation mixture was 3 μM and the final concentration of DMSO was 0.3%.
(§3) Cell cultures were pre-incubated with Transport Medium (TM), consisting of Hanks Balanced Salt Solution (HBSS), 25 mM glucose, and 25 mM HEPES, with and without the known P-gp inhibitor GF120918 (2 μM final assay concentration), for 30-60 minutes prior to the addition of test and control compounds. Following the pre-incubation period, transepithelial electrical resistance (TEER) measurements were taken on each insert to insure the integrity of the monolayer. The range for TEER values was 45-85Ω·cm^2. Transport medium was removed. Fresh transport media (1.5 mL) with or without GF120918 was added to the basolateral chambers. Solutions of the test compound were diluted into TM and added to the appropriate wells in triplicate (400 μL/well) at a final concentration of 3 μM with and without GF120918. The final concentration of DMSO was 0.3%. Control compounds were tested in triplicate at a final concentration of 3 μM. Cell monolayers were incubated with shaking (160 rpm) at 37° C. with 5% CO2 in a humidified incubator for one hour. Following the incubation, all plates were removed from the incubator. Inserts were removed from the plates and TEER measurements were again taken on each insert prior to removing samples for analysis to ensure no degradation of the tight junctions during the assay. An aliquot was taken from each receiver and diluted 1:3 with organic solvent (methanol) to assess transport of each compound across the monolayer. An aliquot was taken from each donor and diluted 1:2 with organic solvent (methanol) and then again 1:50 with matrix (50% methanol/50% TM) to assess mass balance within the study. All samples were assayed for test compound concentrations by LC-MS/MS using electrospray ionization.

The subject of the next data set is MDCK-MDR1 cells. Briefly: in vitro. The format is in vitro ADME, canine. As to conditions: 3 μM test compound. The protocol: as §1, §2, §3

SMILES strings stand for the structures.

Usually Papp stands for a coefficient for how fast a substance crosses the barrier. With `O=C(Nc1ccc2c(c1)B(O)OCC2)c1ccc(F)cc1C(F)(F)F` [M1, 4-Fluoro-N-(1-hydroxy-3,4-dihydro-1H-benzo[c][1,2]oxaborinin-7-yl)-2-trifluoromethyl-benzamide], in data set [1] (female Swiss Webster mice, PO 10 mg/kg BID for 4 days, after 30 days), the “mice parasite free after 30 days” value turned out to be 100%. In data set [1] (mice infected with T. b. brucei, 10 mg/kg, BID, orally, 4 days), the “Mean Survival Days” value was determined as 30 days. For the same molecule, in the data set on P-gp (human MDR1), the Papp at 1 h, 3 µM is 55.7 ×10⁻⁶ cm/s. In addition, the “MDCK-MCR1 AQ” value in the data set with MDCK-MDR1 cells is −0.02.
